Source: patent US20030125287A1, “Antisense oligonucleotides and methods to induce tumor cell death” (Hybridon, Inc., priority 2001, published 2003)
“Also recorded” adds a separate entry of the source. Like-named read-outs stand apart in the source and are kept apart here. Oligonucleotides are written 5' to 3', each unit as a sugar letter and its base; * is a phosphorothioate linkage, no mark a phosphodiester; rarer units and linkages stand in square brackets, end groups in braces. Plain capitals give the bases only. d = 2'-deoxy (DNA)

Experiments:
PARP [1] = assay: PARP cleavage immunoblot in MSN cells; type: cell-based, human
Protocol: To determine whether MSN cell death by survivin antisense oligonucleotides was mediated by caspase-3 activation, studies were conducted to examine whether PARP was cleaved following survivin antisense treatment. […] Since no PARP cleavage was detected, further tests were conducted to determine whether survivin antisense-treated cells have any active caspase-3.

survivin = assay: Western blot of survivin protein in antisense oligonucleotide-treated TC620 cells; type: cell-based, human; settings: for percentage of survivin protein over β-tubulin relative to lipofectin: 48 hours (FIG. 5A)
Protocol: Subconfluent TC620 oligodendroglioma cells were transfected with lipofectin or increasing concentrations of survivin antisense oligonucleotide 904 (25 nM to 400 nM). 75 µg of total protein was loaded per lane. Blots were cut at 32.9 kD and the bottom was incubated with a survivin polyclonal antibody (1:500), while the top was incubated with a β-tubulin monoclonal antibody (1:1000).
The antisense oligonucleotides were synthesized on solid support with an automated DNA synthesizer using β-cyanoethylphosphoramidite chemistry. In order to prevent rapid degradation of the antisense oligonucleotides by cellular nucleases, oxidation was carried out with Becauge sulfurizing agent to obtain phosphorothioate backbone modified oligonucleotides. After their synthesis, the oligonucleotides were released from the solid support, deprotected, purified by reverse-phase HPLC, desalted, filtered and lyophilized. The purity and sequence integrity of oligonucleotides was ascertained by capillary gel electrophoresis and MALDI-TOF mass spectral analysis and the concentrations measured at […]. Cells were grown in 100 mm dishes and oligonucleotide treatment was performed on subconfluent cultures in the presence of Lipofectin (GIBCO) according to the manufacturer. Forty-eight hours following treatment, total protein homogenates were isolated.
Ten micrograms of the fusion protein was incubated with the survivin antibody (1:500) at 4° C. for 2 hours to overnight prior to immunoblotting. […] Blots were cut at 32.9 kD, and the bottom part of the blots were incubated with the survivin antibody overnight at 4° C. and visualized by enhanced chemiluminescence (Enhanced Chemiluminescence, Amersham, Arlington Heights, Ill.) as previously described (Sharma et al. Cell. Motil. Cytoskeleton 27:234-247).

PARP [2] = settings: TC620 cells; 100 nM to 400 nM (FIG. 5B)
Protocol: 75 μg of total protein was loaded per lane. Following gel electrophoresis and transfer to nitrocellulose membrane, the blot was incubated with a PARP monoclonal antibody (1:500) and visualized by enhanced chemiluminescence.
(§1) Survivin polyclonal antibody was purchased from R & D Systems, Inc. (Minneapolis, Minn.). […] A generic β-tubulin monoclonal antibody (TUB 2.1) was purchased from SIGMA (St. Louis, Mo.). The XIAP mAb was purchased from StressGen Biotechnologies Corp. (Victoria, Canada). The poly-ADP ribosyl polymerase (PARP) mAb was purchased from PharMingen/Transduction Laboratories (San Diego, Calif.).

XIAP [3] = assay: Western blot of XIAP protein in TC620 cells; type: cell-based, human; settings: 48 hours (FIG. 10B)
Protocol: TC620 oligodendroglioma cells were transfected with lipofectin or increasing concentrations of survivin antisense oligonucleotide 904 (25 to 400 nM). Total protein was isolated after 48 hours of treatment and 75 μg of total protein was loaded per lane. The experiment was performed once.

caspase-3 = assay: Caspase-3 activity assay in MSN cells; type: cell-based, human; settings: MSN cells, 400 nM, 48 hours; for caspase-3 activity, Relative units/mg protein +/− SD: triplicate
Protocol: MSN cells were treated with lipofectin, 400 nM survivin antisense oligonucleotide 903, 904, or mismatched oligonucleotide 1132, for a 48 hour period. Cell pellets were washed twice in cold PBS and re-suspended in ice-cold hypotonic cell lysis buffer (25 mM HEPES, pH 7.5, 5 mM MgCl2, 5 mM EDTA, 5 mM DTT, 2 mM PMSF, 10 μg/ml pepstatin A, 10 μg/ml leupeptin). Re-suspended pellets were incubated on ice for 20 min, followed by brief sonication for two seconds. Lysates were centrifuged at 14,000 rpm for 20 minutes at 4° C. The supernatant was retained and the protein concentration analyzed by the Bio-Rad protein assay described above.
Supernatants were assayed in triplicate, with and without the caspase-3 inhibitor, Ac-DEVD-CHO, using black opaque, 96 well, flat bottom plates (Greiner Laboratories, USA Scientific Inc., Orlando, Fla.). 50-100 μg of the supernatant was incubated in caspase-3 assay buffer (100 mM HEPES, pH 7.5, 10% sucrose, 0.1% CHAPS and 10 mM DTT) with either 2 μl of DMSO or 2 μl of 2.5 mM Ac-DEVD-CHO (Pharmingen, San Diego, Calif.) so that the final concentration of the inhibitor was 50 μM in a final volume of 100 μl. It was then incubated at 30° C. for 30 minutes. Subsequently, 2 μl of the caspase-3 substrate 2.5 mM Ac-DEVD-AMC (Pharmingen, San Diego, Calif.) (final concentration 50 μM)) was added to each well. Plates were incubated at 30° ° C. for 60 minutes in the dark.
Fluorescence of the reaction was measured using a SPECTRAmax GEMINI spectrofluorometer using SOFTmax® PRO software (Molecular Devices, Sunnyvale, Calif.) at an excitation wavelength of 355 nm and an emission wavelength of 460 nm with a cutoff filter of 455 nm. The data is presented as the ratio of the mean relative fluorescence units/mg protein±SD.

XIAP [4] = settings: MSN cells; 400 nM; 48 hours (FIG. 10A)
Protocol: MSN cells were treated with lipofectin or 400 nM survivin antisense oligonucleotides 900, 901, 903, 904, 905 and 906. Total protein was isolated 48 hours after treatment, and 100 μg of protein was loaded per lane. The blot was incubated with a monoclonal antibody against XIAP (1:1000; IgG1). Visualization was by enhanced chemiluminescence (ECL). […] The experiment was performed twice.
Total protein homogenates were prepared according to a previously described procedure (Albala et al. (1995) J. Neurochem. 64:2480-2490). Protein content was measured using the Bio-Rad detection system (Bio-Rad Laboratories, Hercules, Calif.). Equal amounts of protein were analyzed by SDS-PAGE on 10% gels (Laemmli (1970) Nature 227:680-685). The resolved polypeptides were electrophoretically transferred to nitrocellulose (Towbin et al. (1979) Proc. Natl. Acad. Sci. USA 76:4350-4354).
as §1

With “d(TCTTGGCTCTTTCTCTGTCC) (antisense dT*dC*dT*dT*dG*dG*dC*dT*dC*dT*dT*dT*dC*dT*dC*dT*dG*dT*dC*dC) [Oligo 904, 20-mer phosphorothioate survivin antisense oligonucleotide, complementary to survivin mRNA 5248-5267]” the “PARP cleavage, words” value (PARP [1]) was “did not activate caspase-3 or cleave the caspase-3 substrate, PARP”, the “effect on survivin protein levels” value (survivin) was “marked concentration-dependent reduction in survivin protein levels” and the “percentage of survivin protein over β-tubulin relative to lipofectin” value (survivin; 25 nM) was 109.1%. The “percentage of survivin protein over β-tubulin relative to lipofectin” value (survivin; 50 nM) was 97.4%, the “percentage of survivin protein over β-tubulin relative to lipofectin” value (survivin; 100 nM) was 67.6% and the “percentage of survivin protein over β-tubulin relative to lipofectin” value (survivin; 200 nM) was 45.2%. For the same substance, the “decrease in survivin protein abundance relative to lipofectin-treated cells” value (survivin; 400 nM (FIG. 5A)) was 54%, the “percentage of survivin protein over β-tubulin relative to lipofectin” value (survivin; 400 nM) was 45.7% and the “PARP cleavage (116 kD to 85 kD fragment), words” value (PARP [2]) was “dramatic decrease of the 116 kD PARP protein; also recorded: resulted in the cleavage of the 116 kD caspase-3 substrate PARP”. The “fold change of XIAP protein over β-tubulin relative to lipofectin” value (XIAP [3]; 25 nM) was 1.3 fold, the “fold change of XIAP protein over β-tubulin relative to lipofectin” value (XIAP [3]; 50 nM) was 1.0 fold and the “fold change of XIAP protein over β-tubulin relative to lipofectin” value (XIAP [3]; 100 nM) was 0.71 fold. For the same substance, the “fold change of XIAP protein over β-tubulin relative to lipofectin” value (XIAP [3]; 200 nM) was 0.67 fold, the “fold change of XIAP protein over β-tubulin relative to lipofectin” value (XIAP [3]; 400 nM) was 0.66 fold and the “caspase-3 activity” value (caspase-3) was “no significant increase in caspase-3 activity; also recorded: did not activate caspase-3”. The “caspase-3 activity, Relative units/mg protein +/− SD” value (caspase-3) was 33,532 ± 3732 Relative units/mg protein.

In the case of “d(GCTTCCCAGTCACATCCTGT) (antisense dG*dC*dT*dT*dC*dC*dC*dA*dG*dT*dC*dA*dC*dA*dT*dC*dC*dT*dG*dT) [Oligo 906]”, the “fold change of XIAP protein over β-tubulin relative to lipofectin” value (XIAP [4]) is reported as 8.3 fold.

For “d(GCACCTAGTCTCCCTGCACC) (DNA, all phosphorothioate, methylation of C not given here) [Oligo 1132, mismatched phosphorothioate control oligonucleotide, not complementary to survivin mRNA, reference compound]”, the “caspase-3 activity” value (caspase-3) was “no significant increase in caspase-3 activity” and the “caspase-3 activity, Relative units/mg protein +/− SD” value (caspase-3) was 30,961 ± 1681 Relative units/mg protein.
